Data reported in patent US20070054848A1, “Composition and method for nerve regeneration” (priority 2003, published 2007).
Entries after “also recorded” stand apart in the source; their conditions may differ.

Tests used:
DRG neurons = assay: Neurite outgrowth assay, DRG neurons; format: cell-based, mice
p75 = molecular target: T1, p75 (Homo sapiens, UniProt P08138); assay: Co-precipitation of p75 and Rho GDI with purified recombinant proteins; format: binding; details: 1 μM GST-Rho GDI and Pep5 at the indicated concentrations
T1 construct: host or cells: 293T cells (p75)
T1 sequence (P08138 29-427): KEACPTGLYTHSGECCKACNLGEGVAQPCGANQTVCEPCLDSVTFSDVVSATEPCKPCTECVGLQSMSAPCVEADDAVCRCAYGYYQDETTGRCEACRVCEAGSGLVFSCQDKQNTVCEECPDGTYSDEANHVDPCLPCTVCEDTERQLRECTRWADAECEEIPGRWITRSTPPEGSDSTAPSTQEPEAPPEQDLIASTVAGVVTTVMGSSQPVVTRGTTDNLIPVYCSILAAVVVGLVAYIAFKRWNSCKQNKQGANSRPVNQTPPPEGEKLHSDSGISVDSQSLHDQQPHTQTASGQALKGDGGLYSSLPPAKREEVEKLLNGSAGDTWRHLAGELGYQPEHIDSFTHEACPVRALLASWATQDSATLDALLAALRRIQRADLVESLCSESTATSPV

hippocampal neurons = format: cell-based; details: data not shown
[1] = test system: superior cervical ganglion neurons; format: cell-based; details: 100 ng/ml BDNF; data not shown

## CFFRGGFFNHNPRYC [Pep5]
DRG neurons
  neurite outgrowth of neurons which express the short isoform but not the full-length p75: did not affect the neurite outgrowth
p75
  association of p75 with Rho GDI: inhibited the association of p75 with Rho GDI dose dependently; also recorded: inhibits the binding of p75 with Rho GDI dose dependently
Hippocampal neurons
  NGF-induced promotion of the neurite outgrowth: did not inhibit
[1]
  cell death of superior cervical ganglion neurons: did not inhibit
